From US9855242B2, “Composition for an immunomodulation” (Eberhard Karls Universität Tübingen Medizinische Fakultät, priority 2013, dated 2018)

Assays:
Human NK cells [1] = test: CellTiterBlue viability measurement on human NK cells; format: cell-based; conditions: 48 hours treatment; 6.25, 12.5, 25 or 50 μM of 6-PN or 8-PN, SAHA in low concentrations; versus untreated control; FIG. 2
Procedure: Human NK cells were treated for 48 hours with 6.25, 12.5, 25 or 50 μM of 6-PN or 8-PN. In the following a viability measurement was carried out (CellTiterBlue Viability Asasy, Promega, Madison, United States of America). The clinically used and established HDACi SAHA (Vorinostat) was used in low concentrations as a reference die for both natural HDACi 6-PN and 8-PN. Shown are the mean values with a standard deviation from three independent experiments with expanded NK cells from three healthy human donors. The horizontal continuous line visualizes the value of the untreated control; a decrease of the fluorescence signal means a reduction of the viability.

Human NK cells [2] = test: Overall survival of NK cells, trypan blue staining and daily microscopic counting; format: cell-based; conditions: one time treatment with 6.25, 12.5, 25 or 50 μM; versus untreated control and SAHA treated cells; FIG. 3
Procedure: Human NK cells were treated with 6.25, 12.5, 25 or 50 μM of 6-PN or 8-PN. Subsequently via a tryptan blue staining and a daily microscopic counting in standardized C chip counter chambers the overall survival of NK cells was measured. As a reference dye again the HDACi SAHA (Vorinostat) was used. Shown is the average value with standard deviation from three independent experiments with expanded NK cells from three healthy human donors. The left arrow visualizes <10% of living cells in the SAHA treatment group; the right arrow visualizes <10% of living cells in the untreated control group.

human hepG2 tumor cells = test: NK activity on HepG2 tumor cells by realtime cell monitoring (xCELLigence impedance); format: cell-based
Procedure: In a further experiment the NK activity on human hepG2 tumor cells by means of realtime cell monitoring (Roche Applied Sciences xCELLigence SP-System, Mannheim, Germany) was analyzed. […] The cellular impedance of the adherent tumor cells were measured as parameters for the cell status (cell number, viability, morphology, adhesion). As a positive control for the induction of cell death Triton X-100 was used. Three independent experiments with expanded NK cells from three healthy human donors were carried out. Shown are the average values with standard deviation of one exemplary experiment. The HepG2 tumor cells (target) were incubated at the start of the treatment (24 hours) with 25 μM of 6-PN or 8-PN or with NK cells (effector) (effector to target ratio (E:T)=1.25:1 or 2.5:1) or with the combination of HDACi and NK cells. The normalization happened at the start of the treatment and a decrease of the impedance (normalized cell index) means a reduction of the cell viability or the cell status, respectively.

Hep3B = test: NK activity on a further tumor cell line by realtime cell monitoring; format: cell-based; conditions: compared with the HepG2 result
[3] = test system: melanoma tumor cells with adherent immune cells; test: Primary patient material: melanoma tumor cells with adherent immune cells, tumor cell count; format: cell-based, human; conditions: 12.5 μM or 25 μM; 48, 72, and 96 hours after the start of the treatment; **P<0.01; FIG. 5
[4] = test system: NK cells of healthy donors; test: NK cell viability with automated cell counting device (NC-250); format: cell-based, human; conditions: one time 12.5 μM or 25 μM; daily over 336 h; FIG. 6
Procedure: The examination therefore is independent from the experimentator. NK cells of two healthy donors were one time treated with 12.5 μM or 25 μM of 6-PN or 8-PN, respectively, and subsequently two independent points in time on a daily basis examined by means of a nucleo counter NC-250 cell counting device with respect to viability over a time period of 336 h; shown is the average value +/−SD.

PBMCs of healthy donors [5] = test: PBMC viability with automated cell counting device (NC-250); format: cell-based, human; conditions: one time 12.5 μM or 25 μM; daily over 336 hours; FIG. 7
Procedure: The result is shown in the FIG. 7: PBMCs of three healthy donors were one time treated with 12.5 μM or 25 μM of 6-PN or 8-PN and subsequently on a daily basis at independent points in time examined by means of a nucleo counter NC-250 cell counting device with respect to viability over a time period of 336 hours; shown is the average value +/−SD.

PBMCs of healthy donors [6] = test: Metabolic activity of PBMCs, Promega CellTiter-Blue Assay; format: cell-based, human; conditions: one time 12.5 μM or 25 μM; after 48 hours; FIG. 8A
Procedure: (§1) The result is shown in the FIG. 8: A PBMCs of two healthy donors were one time treated with 12.5 μM or 25 μM of 6-PN or 8-PN and examined after 48 hours. B NKL cells were one time treated with 12.5 μM or 25 μM of 6-PN or 8-PN and examined after 48 h. In both immune cell populations and in both treatments an increase of a metabolic activity can be detected; shown is the average value +/−SD.

NK cell line NKL = test: Metabolic activity of NKL cells, Promega CellTiter-Blue Assay; format: cell-based; conditions: one time 12.5 μM or 25 μM; after 48 h; FIG. 8B
Procedure: as §1

[7] = test system: estrogen receptors of the uterus of rats; conditions: cited from earlier work
[8] = test system: angiogenesis induced by the basic fibroblast growth factor and the vascular endothelial growth factor; conditions: three dimensional collagen gel; bFGF and VEGF induced; cited from earlier work
angiogenesis = conditions: chorioallantois membrane assays; cited from earlier work
MCF7 cells = conditions: cited from earlier work
P glycoprotein = P glycoprotein (Homo sapiens, UniProt P08183); conditions: cited from earlier work
MRP1 = MRP1 (Homo sapiens, UniProt P33527); conditions: cited from earlier work
[9] = test system: PI (3) K/Akt signaling pathway; conditions: MCF-7 cells in vitro; cited from earlier work
PC-3 = conditions: in vitro; cited from earlier work
DU145 = conditions: in vitro; cited from earlier work
[10] = test system: histone deacetylases (HDACs) of classes I, II, and IV; conditions: cited from earlier work

Sequence of MRP1 (P33527 whole entry): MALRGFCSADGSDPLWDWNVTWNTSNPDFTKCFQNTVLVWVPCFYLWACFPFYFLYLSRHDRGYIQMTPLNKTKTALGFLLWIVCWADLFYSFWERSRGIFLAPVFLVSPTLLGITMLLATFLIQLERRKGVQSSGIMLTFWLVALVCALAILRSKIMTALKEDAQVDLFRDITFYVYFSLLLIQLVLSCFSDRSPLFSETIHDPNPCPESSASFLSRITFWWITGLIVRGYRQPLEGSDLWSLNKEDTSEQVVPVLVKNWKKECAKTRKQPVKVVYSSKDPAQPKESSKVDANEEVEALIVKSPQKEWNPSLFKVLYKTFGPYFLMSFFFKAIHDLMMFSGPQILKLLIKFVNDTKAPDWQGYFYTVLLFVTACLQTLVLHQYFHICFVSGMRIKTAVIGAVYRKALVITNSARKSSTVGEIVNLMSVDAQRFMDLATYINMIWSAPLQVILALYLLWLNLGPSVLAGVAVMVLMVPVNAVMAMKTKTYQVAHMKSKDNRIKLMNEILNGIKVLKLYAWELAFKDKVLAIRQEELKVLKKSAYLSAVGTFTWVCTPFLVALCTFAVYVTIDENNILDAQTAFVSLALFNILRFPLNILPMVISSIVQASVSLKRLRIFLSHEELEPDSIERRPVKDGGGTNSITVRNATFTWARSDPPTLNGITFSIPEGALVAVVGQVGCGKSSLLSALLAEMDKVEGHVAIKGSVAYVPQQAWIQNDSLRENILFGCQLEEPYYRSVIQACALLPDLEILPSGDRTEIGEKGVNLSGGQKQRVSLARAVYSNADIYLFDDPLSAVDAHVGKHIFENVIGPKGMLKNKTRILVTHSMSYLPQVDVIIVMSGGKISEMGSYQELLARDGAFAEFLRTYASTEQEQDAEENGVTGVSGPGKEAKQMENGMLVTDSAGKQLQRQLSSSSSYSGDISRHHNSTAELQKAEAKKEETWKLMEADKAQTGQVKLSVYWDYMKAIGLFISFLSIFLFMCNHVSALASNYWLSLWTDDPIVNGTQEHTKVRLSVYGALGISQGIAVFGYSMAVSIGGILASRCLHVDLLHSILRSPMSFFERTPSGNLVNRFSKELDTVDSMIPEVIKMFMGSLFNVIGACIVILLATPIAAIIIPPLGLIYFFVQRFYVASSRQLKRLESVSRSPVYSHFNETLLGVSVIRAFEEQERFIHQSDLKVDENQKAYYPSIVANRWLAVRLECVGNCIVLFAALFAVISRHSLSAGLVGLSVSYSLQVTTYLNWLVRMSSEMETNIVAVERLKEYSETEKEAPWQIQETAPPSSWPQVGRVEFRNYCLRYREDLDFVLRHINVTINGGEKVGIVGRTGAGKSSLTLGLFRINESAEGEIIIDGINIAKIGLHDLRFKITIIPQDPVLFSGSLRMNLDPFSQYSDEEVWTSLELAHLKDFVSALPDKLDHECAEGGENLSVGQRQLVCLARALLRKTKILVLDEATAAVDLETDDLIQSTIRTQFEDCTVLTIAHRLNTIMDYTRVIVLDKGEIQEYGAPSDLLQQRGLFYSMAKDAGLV
Sequence of P glycoprotein (P08183 whole entry): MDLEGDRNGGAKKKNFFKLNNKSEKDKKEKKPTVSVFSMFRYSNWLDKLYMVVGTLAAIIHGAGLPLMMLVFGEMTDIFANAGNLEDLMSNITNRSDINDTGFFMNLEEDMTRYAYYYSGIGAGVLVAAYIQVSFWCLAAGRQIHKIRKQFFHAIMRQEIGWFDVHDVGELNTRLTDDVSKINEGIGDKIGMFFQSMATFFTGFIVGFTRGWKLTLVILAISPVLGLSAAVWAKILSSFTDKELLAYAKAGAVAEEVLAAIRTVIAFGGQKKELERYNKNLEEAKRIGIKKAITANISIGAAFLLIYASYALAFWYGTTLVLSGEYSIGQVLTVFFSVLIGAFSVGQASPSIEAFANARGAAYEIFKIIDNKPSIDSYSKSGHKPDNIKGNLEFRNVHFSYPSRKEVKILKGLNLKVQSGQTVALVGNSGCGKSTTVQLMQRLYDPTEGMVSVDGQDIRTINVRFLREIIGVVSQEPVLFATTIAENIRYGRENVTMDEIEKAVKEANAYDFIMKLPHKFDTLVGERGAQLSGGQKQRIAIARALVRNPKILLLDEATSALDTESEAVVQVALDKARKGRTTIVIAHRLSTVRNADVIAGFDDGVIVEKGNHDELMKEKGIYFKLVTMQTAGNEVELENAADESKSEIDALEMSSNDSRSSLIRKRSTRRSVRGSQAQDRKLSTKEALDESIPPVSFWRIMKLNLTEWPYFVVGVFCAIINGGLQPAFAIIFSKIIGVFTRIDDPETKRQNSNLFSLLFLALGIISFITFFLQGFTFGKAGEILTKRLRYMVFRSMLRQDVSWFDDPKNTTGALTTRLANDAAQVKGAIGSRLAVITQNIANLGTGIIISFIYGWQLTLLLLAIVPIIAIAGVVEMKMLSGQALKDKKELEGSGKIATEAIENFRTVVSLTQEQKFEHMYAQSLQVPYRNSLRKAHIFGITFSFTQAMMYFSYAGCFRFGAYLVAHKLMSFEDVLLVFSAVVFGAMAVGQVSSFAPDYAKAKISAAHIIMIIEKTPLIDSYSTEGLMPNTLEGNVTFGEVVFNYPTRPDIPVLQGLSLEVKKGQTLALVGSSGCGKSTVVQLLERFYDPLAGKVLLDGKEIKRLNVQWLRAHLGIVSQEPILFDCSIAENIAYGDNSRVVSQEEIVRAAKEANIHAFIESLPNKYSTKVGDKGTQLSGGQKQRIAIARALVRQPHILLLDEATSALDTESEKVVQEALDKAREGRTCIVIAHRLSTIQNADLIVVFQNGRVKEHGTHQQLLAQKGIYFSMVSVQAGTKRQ

Row | Structure (SMILES) | viability of human NK cells (Human NK cells [1]) | survival rate of the NK cells (Human NK cells [2]) | activity of the human NK cells over human tumor cells (normalized cell index) (human hepG2 tumor cells; 25 μM with NK cells, E:T 1.25:1 or 2.5:1, FIG. 4) | sensitivity of HepG2 tumor cells against the compound (human hepG2 tumor cells; compound without NK cells) | activity of NK cells on further tumor cell line (Hep3B) | quantitative evaluation of the tumor cells (melanoma cells) [3] | viability of NK cells of healthy donors [4] | viability of PBMCs of healthy donors (PBMCs of healthy donors [5]) | metabolic activity of PBMCs (PBMCs of healthy donors [6]) | metabolic activity of NKL cells (NK cell line NKL) | binding affinity for estrogen receptors [7] | angiogenesis in vitro [8] | angiogenesis in vivo (angiogenesis) | apoptosis in MCF7 cells (MCF7 cells) | inhibition of the P glycoprotein (P glycoprotein) | inhibition of MRP1 (MRP1) | activation of the PI (3) K/Akt signaling pathway [9] | antiproliferative effects on PC-3 (PC-3) | antiproliferative effects on DU145 (DU145) | inhibition of histone deacetylases (HDACs) of classes I, II, and IV [10]
1 | CC(C)=CCc1c(O)cc(O)c2c1OC(c1ccc(O)cc1)CC2=O (stereo not drawn) [8-PN, 5,7-dihydroxy-2-(4-hydroxy-phenyl)-8-(3-methyl-but-2-enyl)-chroman-4-one] | in parts significant increase of the viability | significantly increased | increased activity of the human NK cells | low sensitivity | equivalent results | significant decrease of the melanoma cells | increase/extend the viability | increase/extend viability | increase the metabolic activity | increase the metabolic activity | strong binding affinity | inhibits the angiogenesis | inhibits the angiogenesis | induces furthermore the apoptosis | inhibition | inhibition | directly inhibits the activation | antiproliferative effects | antiproliferative effects | distinct inhibitors
2 | O=C(CCCCCCC(=O)Nc1ccccc1)NO [SAHA, reference compound] | significant decrease of the viability | – | – | – | – | – | – | – | – | – | – | – | – | – | – | – | – | – | – | –
